# Data: a melting point compilation (Tetko et al.; mined from patent text by program, amines drawn as free bases though some values may be those of a salt)
row,Compound,melting point [°C]
1,CC1(C)C=C(N2CCCC2=O)c2cc(C#N)ccc2C1,131 to 132
2,CCc1c(N(C(C)=O)c2cc(C)cc(C)c2)[nH]c(=O)[nH]c1=O,238 to 239
3,CC(C)(C)NCC(O)c1cc(Cl)c(N)c([N+](=O)[O-])c1 (centres undefined),148 to 149
4,CNC(=O)c1cc(-c2ccc(OC)c(F)c2)nn(CC2CC2)c1=O,140 to 141
5,COc1cc(Nc2c(C#N)cnc3cc(/C=C/C(=O)N4CCN(C)CC4)sc23)c(Cl)cc1Cl,218 to 220
6,CCC1c2cc(OC)c(OC)cc2C(C=Cc2ccc(N)cc2)=NN(C(C)=O)C1C (centres undefined),104 to 106
7,C=CC1CCC2C3CCC4=CC(=O)CCC4(C)C3CCC12C (centres undefined),122 to 124
8,CCNC(=O)n1nc(Oc2ncc(C(F)(F)F)cc2Cl)c(C)c1C,124 to 125
9,CCOc1cc2cc(CO)c(CO)c(-c3ccnc(-n4ccc5ccccc5c4=O)c3)c2cc1OCC,131 to 134
10,CCCN(Cc1ccc(-c2ccccc2-c2nc(=O)s[nH]2)cc1)c1nc2ccccc2cc1C(=O)O,118 to 124
11,CCCc1c(O)c(C(C)=O)cc2c(C)cc(C(=O)OCC)nc12,150 to 151
12,O=C(NC1=NN(c2ccccc2)C(c2ccccc2)C1)C(F)(F)F (centres undefined),152 to 154
13,O=C(c1ccc(F)cc1)c1ccc(C(=O)c2ccc(F)cc2)cc1,218 to 220
14,Cc1ccc(Cc2cnc(NCCCCc3ncc(Br)cc3N)[nH]c2=O)cn1,196 to 197
15,COc1ccc2c(c1)CCC1CCN(C)C(=O)C(CC(C)=O)=C21 (centres undefined),190 to 192
16,Cn1c(-c2ccc(-c3ccccn3)cc2)cnc1[C@H](Cc1ccccn1)N(C=O)c1cc2cc(Cl)ccc2o1,175 to 180
17,CS(=O)c1ccc(C2=C(c3ccccc3)C(=O)OC2)cc1 (centres undefined),149 to 150
18,[O-][N+]#Cc1c(Cl)ccc2cc(Cl)cnc12,185
19,CC(=O)c1coc2cc(NS(C)(=O)=O)c(Oc3ccccc3)cc2c1=O,175 to 177
20,Cc1ccccc1-c1nn(C(C)(C)C(=O)N(C)C)cc1Cl,134 to 136
21,O=C(O)c1cc2cc(Br)cc(Br)c2nc1NC(Cc1ccccc1)C(=O)O (centres undefined),115 to 117
22,O=S1(=O)N(CCCl)c2cccc3c2N1CCC3,70
23,CC(C)(C)c1ccc(Cn2c(=S)n(Cc3ccc(NS(C)(=O)=O)cc3)c3ccccc32)cc1,176 to 178

row,Compound,melting point [°C]
1,N#CCCCCCN1CCc2c(c3cc(F)ccc3n2-c2ccc(F)cc2)C1,90 to 98
2,C[C@@H]1CCCN1CCc1ccc2cc(-c3ccc(C#N)cc3)ccc2n1,164
3,CC(C)(C)OC(=O)N[C@@H](C(=O)O)C1(C)CCCCC1,127 to 130
4,COc1ccc(NN=C(Sc2cccc(Cl)c2)C(C)=O)cc1,132 to 134
5,COC(=O)c1c(C(C)(C)O)nc(C(C)OC)n1Cc1ccc(-c2ccccc2-c2nnnn2C(c2ccccc2)(c2ccccc2)c2ccccc2)cc1 (centres undefined),131 to 133
6,COC=C(C(=O)OC)C1=C(C=Cc2ccccc2)CCC1,107
7,O=C(Nc1cc(Cl)cc2c(Cl)ccnc12)c1c(Cl)cccc1Cl,201 to 205
8,ClCCCCOc1ccc(Br)c(CCOCc2ccccc2)c1,65 to 66
9,Cc1cnc(C#N)c(Cl)n1,63 to 65
10,N#Cc1cc(-c2ccccc2)[nH]c1Sc1ccc(N)cc1,146 to 147
11,O=C(O)CCCc1nc2c(F)c(F)cc(F)c2s1,113 to 114
12,COc1cc(OC)nc(Oc2ccc3ccccc3c2C=O)n1,123 to 125
13,O=C(Nc1cccc2[nH]ccc12)c1ccc(Cl)cc1OCC1CO1 (centres undefined),194
14,Cc1c(F)c(NCc2ccccc2)cc2oc(=O)[nH]c12,204 to 206
15,O=C(O)c1ccc2c(c1)CCC(CO)O2 (centres undefined),150
16,CCCC(=O)c1cnc2c(C)cccc2c1Nc1c(C)cccc1C,100 to 101
17,CN1CCC(c2n[nH]c3ccc(NC(=O)c4ccc(F)cc4)cc23)CC1,151 to 153
18,CCOc1cccc(CSc2nc3cnccc3[nH]2)c1,158 to 161
19,O=S1NC=Cc2ccccc21 (centres undefined),198 to 200
20,COC1=CC(=O)NCC1,115 to 117
21,Cc1cc(C(=O)N2CCC3(CC2)CSC2=C(O3)c3ccccc3C(=O)C2=O)n(C)n1,244 to 245
22,c1ccc(C2CCN=C(c3csnn3)N2)cc1 (centres undefined),158
23,Cc1cc(N2C=CNC2N)ccn1 (centres undefined),167

row,Compound,melting point [°C]
1,COc1ccc(OC)c(COc2ccc3nc[nH]c(=O)c3c2)c1,155 to 158
2,CNC(=N[N+](=O)[O-])NCc1ccc(Cl)nc1,150 to 152
3,O=S(=O)(NC(CCCN1CCN(c2ncc(F)cn2)CC1)c1ccc(F)cc1)c1ccc(F)cc1 (centres undefined),128 to 129
4,CC(NC(=O)NCCCCC1CCSS1)C(=O)O (centres undefined),131 to 134
5,Cn1c(S)nc(-c2ccncc2)cc1=O,250 to 252
6,CCOc1nc(NCc2ccco2)nc(Nc2ccc(OC)c(OC)c2)n1,100 to 102
7,O=C(O)c1cn(C2CC2)c2cc(N3CCNC(c4ccoc4)C3)c(F)cc2c1=O (centres undefined),202 to 204
8,Cc1c(F)c(F)c(F)c2c1c(=O)c(C(=O)O)cn2C1CC1,234 to 235
9,O=C1N[C@H](c2ccco2)[C@@H]1O,133 to 135
10,COC(=O)c1ccc(OC)cc1S(=O)(=O)Cl,69 to 72
11,COCCc1nc2c(N)nc3cc(Br)cnc3c2n1CC(C)(C)O,210 to 211
12,CCN(CC)Cc1cc(Nc2ccnc3cc(Cl)ccc23)c2c(c1O)CCCC2,215 to 217
13,CC12CCC3c4ccc(O)cc4C(O)C(Sc4ccc(Br)cc4)C3C1CCC2O (centres undefined),140 to 145
14,COc1ccc(-c2cc(=O)n(CC3CCCC3)nc2-c2ccc(OC)cc2)cc1,130 to 131
15,Cc1ccc(C#CC#Cc2ccc(C)cc2)cc1,182 to 183
16,Cc1ccc(N(c2ccc(C)cc2)c2ccc(C=Cc3cc(O)cc(O)c3)cc2)cc1,161
17,CCOC(=O)Cc1ncc2c(n1)-c1ccc(Cl)cc1C(c1ccccc1F)=NC2,98 to 103
18,COc1ccc(C(=O)c2ccccc2F)c(Cl)c1,77 to 79
19,O=[N+]([O-])c1cn2c(n1)OC[C@@H](OCc1cnc(Cl)cn1)C2,181 to 183
20,CCN(CC)C(=O)c1c(I)ccc(F)c1[Si](C)(C)C,58.5 to 64
21,CC1(C)c2cc(C#N)ccc2OC1N1CCOCC1 (centres undefined),105 to 107
22,N#Cc1ccc(N2C[C@H](O)C[C@@H]2CO)c2ccccc12,146 to 147

# The remaining lines, values ahead:
row,melting point [°C],Compound
1,104 to 106,CCOCc1ncccc1CN(CCn1ccc2oc(C)cc2c1=O)Cc1ccc2c(c1)N(C)C(=O)C(C)(C)C(=O)N2CC
2,228 to 230,Cc1cc(CC(C)(C)NCC(O)c2cc(OCc3ccccc3)cc3c2OCC(=O)N3)ccc1F (centres undefined)
3,> 300,CCCNC(=O)Nc1ccc(-c2cc3[nH]c(=O)[nH]c3nc2C)cc1
4,185,CC(C)(C)OC(=O)C[C@H](NC(=O)CNC(=O)c1csc(NC(=O)NCc2ccccc2)n1)C(=O)NCc1cccnc1
5,153 to 157,CCOC(=O)c1c(O)n(CC)c2cc(-c3ccncc3)ccc2c1=O
6,162 to 163,CNC(=O)C(O)C(Oc1ccccc1[N+](=O)[O-])c1ccccc1 (centres undefined)
7,99 to 112,Cc1cc(C2(C(F)(F)F)ON=C(c3ccc(F)cc3)O2)ccc1NC(=O)c1cccc(I)c1C(=O)NC(C)C (centres undefined)
8,195 to 196,CC(C)Oc1ccc(NC(=O)OCc2cc3cc(-c4ccc(F)cc4)ccc3o2)c(C(=O)O)c1
9,113 to 114,CC(C)(C)c1ccc(CN2C(=O)N(c3ccccc3)CSC2=NCC(F)(F)F)cc1
10,120 to 121,CCOC(=O)C1=C(C)NC(C)=C(C(=O)OCC)C1c1ccccc1[N+](=O)[O-]
11,168 to 170,N#Cc1c(NCc2ccc(N)cc2)n[nH]c1N
12,206 to 209,CC(C)(O/N=C(\C(=O)N[C@@H]1C(=O)N[C@@H]1COC(=O)NC(=O)CCl)c1csc(NC(=O)CCl)n1)C(=O)OCc1ccc([N+](=O)[O-])cc1 (relative stereo)
13,206 to 211,CN1C(=O)N2C(=NC1(C)C)N(C(=O)Nc1ccc(Cl)cc1)c1ccccc12
14,152 to 155,CCOC(C)=NOc1nc(C(F)(F)F)cc(=O)n1-c1cc(Oc2ccccc2[N+](=O)[O-])c(Cl)cc1F
15,216 to 217,O=C(O)CSc1ccc([N+](=O)[O-])cc1C(=O)O
16,160 to 161,O=C(NC1CNC1=O)OCc1ccccc1 (centres undefined)

row,melting point [°C],Compound
1,60 to 61,CCOCOC(=O)Cc1c(C)n(C(=O)c2ccc(Cl)cc2)c2ccc(OC)cc12
2,84 to 85,O=C(Cl)COc1ccc([N+](=O)[O-])cc1
3,114 to 118,COc1ccc(C)cc1NC(=O)Nc1ccc(N2CCN(C(=O)Nc3cc(OCC(O)CO)ccc3Cl)CC2)cc1 (centres undefined)
4,113 to 117,CCCc1nccn1Cc1ccc2c(c1)Cc1c(-c3ccsc3)n[nH]c1-2
5,146 to 147,CCOc1nn(Cc2cccc(OCCn3ncc4ccccc4c3=O)c2)cc1CCC(=O)O
6,87 to 89,O=C(OC1CCN(Cc2ccccc2)CC1)c1ccc([N+](=O)[O-])cc1
7,52,CCOC(=O)c1nnnn1Cc1ccc(OC)cc1
8,133 to 135,CCN(CC)CCNc1ccc(CNc2ccccc2)c2sc3ccccc3c(=O)c12
9,170 to 172,COC(=O)C1=C(C)NC(C)=C(C(=O)OCC2CCCO2)C1c1cccc(O)c1 (centres undefined)
10,86 to 87,CCCC(=O)Oc1ccc(OC(=O)CCC)c(C#N)c1C#N
11,249 to 251,CC(=O)N(C)c1cc2c(nc(C)n2C)c(O)c1CCC(=O)c1ccccc1
12,243 to 245,CCCCC(=O)Nc1ccc(C(F)(F)F)c(-n2nc(CC)n(Cc3ccc(-c4ccccc4S(=O)(=O)NC(C)(C)C)cc3F)c2=O)c1
13,85 to 90,COc1ccc(S(=O)(=O)CC(O)(CS(=O)(=O)c2ccc(F)cc2)C(=O)NO)cc1 (centres undefined)
14,229 to 231,CCSCc1ccc2[nH]c(NC(=O)OC)nc2c1
15,162 to 165,COCCOc1ccc2sc(C(=O)Nc3ccccc3N)cc2c1
